What was measured:
[1] = biological target: Serotonin 2 (5-HT2) receptor (Rattus norvegicus, UniProt P30994+P08909+P14842); assay: Affinity on 5-hydroxytryptamine 2 receptor labeled by [125I]DOI; format: protein assay
[2] = biological target: T1, 5-hydroxytryptamine receptor 1A (Rattus norvegicus, UniProt P19327); assay: Affinity on 5-hydroxytryptamine 1A receptor labeled by [3H]8-OH-DPAT
T1 sequence (P19327 whole entry): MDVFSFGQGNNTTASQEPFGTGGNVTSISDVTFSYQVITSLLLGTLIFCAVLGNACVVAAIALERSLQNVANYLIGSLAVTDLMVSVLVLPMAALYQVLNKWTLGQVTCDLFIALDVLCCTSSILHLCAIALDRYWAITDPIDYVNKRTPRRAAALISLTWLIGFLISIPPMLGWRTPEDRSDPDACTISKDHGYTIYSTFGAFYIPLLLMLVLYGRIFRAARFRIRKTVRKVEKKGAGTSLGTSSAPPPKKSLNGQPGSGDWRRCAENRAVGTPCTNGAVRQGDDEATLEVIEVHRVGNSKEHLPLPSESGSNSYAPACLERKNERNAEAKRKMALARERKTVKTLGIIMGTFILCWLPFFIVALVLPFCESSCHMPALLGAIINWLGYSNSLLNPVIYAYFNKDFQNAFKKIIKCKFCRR

Compound | Ki [1] [nM] | Ki [2] [nM]
COc1ccc2occ(CCN(C)C)c2c1 | 95 | 101
COc1ccc2occ(CC(C)N)c2c1 (racemic) | 42 | 445
COc1ccc2occ(CC(C)N)c2c1 (stereo in doubt; 4) | 27.1 | 779
COc1ccc2[nH]cc(CCN(C)C)c2c1 [MEBUFOTENIN] | – | 69

— ChEMBL document CHEMBL1126062, “Benzofuran bioisosteres of hallucinogenic tryptamines” (J Med Chem, 1992)
